From ChEMBL document CHEMBL1201862, “PubChem BioAssay data set” (2004)
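A five-concentration, 48-hour dose response in 96-well plates underlies each endpoint, interpolated linearly between surrounding concentrations. GI50: concentration for 50% inhibition of growth.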 The source made the active and inactive calls. Rule as the data show it: active = GI50 up to about 1.1 µM and inactive = higher.

Legend:
Experiment in all cases: NCI anticancer screen, dose series, 48 h
786-0 = system: 786-0
A498 = system: A498
A549 = system: A549
ACHN = system: ACHN
CAKI-1 = system: CAKI-1
CCRF-CEM = system: CCRF-CEM
COLO 205 = system: COLO 205
DLD-1 = system: DLD-1
DMS-114 = system: DMS-114
DMS-273 = system: DMS-273
EKVX = system: EKVX
HCC 2998 = system: HCC 2998
HCT-116 = system: HCT-116
HCT-15 = system: HCT-15
HL-60 = system: HL-60
HOP-62 = system: HOP-62
HOP-92 = system: HOP-92
HT-29 = system: HT-29
IGROV-1 = system: IGROV-1
K562 = system: K562
KM-20L2 = system: KM-20L2
KM12 = system: KM12
LXFL 529 = system: LXFL 529
M14 = system: M14
M19-MEL = system: M19-MEL
MOLT-4 = system: MOLT-4
Malme-3M = system: Malme-3M
NCI-H226 = system: NCI-H226
NCI-H23 = system: NCI-H23
NCI-H460 = system: NCI-H460
NCI-H522 = system: NCI-H522
OVCAR-3 = system: OVCAR-3
OVCAR-4 = system: OVCAR-4
OVCAR-5 = system: OVCAR-5
OVCAR-8 = system: OVCAR-8
RPMI-8226 = system: RPMI-8226
RXF 393 = system: RXF 393
SF-268 = system: SF-268
SF-295 = system: SF-295
SF-539 = system: SF-539
SK-MEL-28 = system: SK-MEL-28
SK-MEL-2 = system: SK-MEL-2
SK-OV-3 = system: SK-OV-3
SN12C = system: SN12C
SNB-19 = system: SNB-19
SNB-75 = system: SNB-75
SNB-78 = system: SNB-78
SR = system: SR
SW-620 = system: SW-620
TK-10 = system: TK-10
U-251 = system: U-251
UACC-257 = system: UACC-257
UACC-62 = system: UACC-62
UO-31 = system: UO-31
BT-549 = system: BT-549
DU-145 = system: DU-145
Hs-578T = system: Hs-578T
LOX IMVI = system: LOX IMVI
MCF7 = system: MCF7
MDA-MB-231 = system: MDA-MB-231
MDA-MB-435 = system: MDA-MB-435
MDA-N = system: MDA-N
NCI/ADR-RES = system: NCI/ADR-RES
PC-3 = system: PC-3
SK-MEL-5 = system: SK-MEL-5
T47D = system: T47D

For `CC(C)S(=O)(=O)n1c(N)nc2ccc(/C(=N/O)c3ccccc3)cc21` [ENVIROXIME], the GI50 (786-0) was 40.3 µM (inactive), the GI50 (A498) was 8.32 µM (inactive) and the GI50 (A549) was 14.2 µM (inactive). For the same compound, the GI50 (ACHN) was 13.7 µM (inactive), the GI50 (CAKI-1) was 14.2 µM (inactive) and the GI50 (CCRF-CEM) was 10.6 µM (inactive). The GI50 (COLO 205) was 17.5 µM (inactive), the GI50 (DLD-1) was 26.2 µM (inactive) and the GI50 (DMS-114) was 16.9 µM (inactive). The GI50 (DMS-273) was 31.4 µM (inactive), the GI50 (EKVX) was 16.4 µM (inactive) and the GI50 (HCC 2998) was 22 µM (inactive). For the same compound, the GI50 (HCT-116) was 18.6 µM (inactive), the GI50 (HCT-15) was 23.4 µM and the GI50 (HL-60) was 12.2 µM (inactive). The GI50 (HOP-62) was 13.9 µM (inactive), the GI50 (HOP-92) was 3.61 µM (inactive) and the GI50 (HT-29) was 16.9 µM (inactive). The GI50 (IGROV-1) was 19 µM (inactive), the GI50 (K562) was 27.2 µM (inactive) and the GI50 (KM-20L2) was 16 µM (inactive). The GI50 (KM12) was 20.6 µM (inactive), the GI50 (LXFL 529) was 41.4 µM (inactive) and the GI50 (M14) was 17.9 µM (inactive). The GI50 (M19-MEL) was 34 µM (inactive), the GI50 (MOLT-4) was 14 µM (inactive) and the GI50 (Malme-3M) was 45.4 µM (inactive). The GI50 (NCI-H226) was 4.63 µM (inactive), the GI50 (NCI-H23) was 21.8 µM (inactive) and the GI50 (NCI-H460) was 26.1 µM (inactive). The GI50 (NCI-H522) was 17.2 µM (inactive), the GI50 (OVCAR-3) was 18.6 µM (inactive) and the GI50 (OVCAR-4) was 23.5 µM (inactive). The GI50 (OVCAR-5) was 21 µM (inactive), the GI50 (OVCAR-8) was 30.3 µM (inactive) and the GI50 (RPMI-8226) was 10.3 µM (inactive). The GI50 (RXF 393) was 11.4 µM (inactive), the GI50 (SF-268) was 27.7 µM (inactive) and the GI50 (SF-295) was 18.2 µM (inactive). The GI50 (SF-539) was 15 µM (inactive), the GI50 (SK-MEL-28) was 36.1 µM (inactive) and the GI50 (SK-MEL-2) was 20.9 µM (inactive). For the same compound, the GI50 (SK-OV-3) was 22.4 µM (inactive), the GI50 (SN12C) was 27.8 µM (inactive) and the GI50 (SNB-19) was 30 µM (inactive). For the same compound, the GI50 (SNB-75) was 3.26 µM (inactive), the GI50 (SNB-78) was 36.4 µM (inactive) and the GI50 (SR) was 0.223 µM (active). The GI50 (SW-620) was 21.8 µM (inactive), the GI50 (TK-10) was 32.4 µM (inactive) and the GI50 (U-251) was 39.3 µM (inactive). For the same compound, the GI50 (UACC-257) was 44.5 µM (inactive), the GI50 (UACC-62) was 23.1 µM (inactive) and the GI50 (UO-31) was 17.3 µM (inactive).
`O=C(O)CCSC(CC1(c2ccc(Cl)cc2)NC(=O)CCS1)c1ccccc1` (stereo not drawn) was tested, and the GI50 (786-0) was 6.7 µM (inactive), the GI50 (A498) was 21.5 µM (inactive) and the GI50 (A549) was 24.2 µM (inactive). For the same compound, the GI50 (ACHN) was 25.5 µM (inactive), the GI50 (BT-549) was 17 µM (inactive) and the GI50 (CAKI-1) was 16.9 µM (inactive). The GI50 (CCRF-CEM) was 1.9 µM (inactive), the GI50 (COLO 205) was 22.3 µM (inactive) and the GI50 (DU-145) was > 39.4 µM (inactive). The GI50 (EKVX) was 21.5 µM (inactive), the GI50 (HCC 2998) was 10 µM (inactive) and the GI50 (HCT-116) was 4.71 µM (inactive). For the same compound, the GI50 (HCT-15) was 8.09 µM, the GI50 (HL-60) was 3.44 µM (inactive) and the GI50 (HOP-62) was 21.2 µM (inactive). The GI50 (HOP-92) was 33.8 µM (inactive), the GI50 (HT-29) was 17.3 µM (inactive) and the GI50 (Hs-578T) was 12.9 µM (inactive). The GI50 (IGROV-1) was 12.1 µM (inactive), the GI50 (K562) was 10.8 µM (inactive) and the GI50 (KM12) was 3.56 µM (inactive). The GI50 (LOX IMVI) was 14.6 µM (inactive), the GI50 (M14) was 19.4 µM (inactive) and the GI50 (MCF7) was 3.87 µM (inactive). For the same compound, the GI50 (MDA-MB-231) was 22.1 µM (inactive), the GI50 (MDA-MB-435) was 14.3 µM (inactive) and the GI50 (MDA-N) was 12.6 µM (inactive). For the same compound, the GI50 (MOLT-4) was 12.5 µM (inactive), the GI50 (Malme-3M) was 22.9 µM (inactive) and the GI50 (NCI-H226) was 17.3 µM (inactive). For the same compound, the GI50 (NCI-H23) was 20.9 µM (inactive), the GI50 (NCI-H460) was 16.8 µM (inactive) and the GI50 (NCI-H522) was 15.1 µM (inactive). The GI50 (NCI/ADR-RES) was 20.8 µM (inactive), the GI50 (OVCAR-3) was 20.2 µM (inactive) and the GI50 (OVCAR-4) was 15 µM (inactive). For the same compound, the GI50 (OVCAR-5) was 17.9 µM (inactive), the GI50 (OVCAR-8) was 19.9 µM (inactive) and the GI50 (PC-3) was 18.7 µM (inactive). The GI50 (RPMI-8226) was 3.56 µM (inactive), the GI50 (RXF 393) was 21.7 µM (inactive) and the GI50 (SF-268) was 18 µM (inactive). The GI50 (SF-295) was 21.2 µM (inactive), the GI50 (SF-539) was 7.98 µM (inactive) and the GI50 (SK-MEL-28) was 17.9 µM (inactive). For the same compound, the GI50 (SK-MEL-2) was 18.7 µM (inactive), the GI50 (SK-MEL-5) was 13 µM (inactive) and the GI50 (SK-OV-3) was 20.5 µM (inactive). For the same compound, the GI50 (SN12C) was 18.3 µM (inactive), the GI50 (SNB-19) was 23.8 µM (inactive) and the GI50 (SNB-75) was 17.1 µM (inactive). For the same compound, the GI50 (SR) was 8.32 µM (inactive), the GI50 (SW-620) was 5.12 µM (inactive) and the GI50 (T47D) was 16.1 µM (inactive). For the same compound, the GI50 (TK-10) was 18.4 µM (inactive), the GI50 (U-251) was 10.4 µM (inactive) and the GI50 (UACC-257) was 21.9 µM (inactive). For the same compound, the GI50 (UACC-62) was 19.9 µM (inactive) and the GI50 (UO-31) was 20.7 µM (inactive).
